According to US20130005833A1, “PHOTO-RESPONSIVE SUPRAMOLECULAR HYDROGELS” (priority 2011, published 2013):
Azo = N-terminal azobenzene

How the values were obtained:
Type in all cases: physicochemical
[1] = Hydrogelation conditions: lowest concentration to gel water at specific pH; set-up: key to pH (hydrogelation condition): —: unable to form hydrogel under tested conditions; details: for pH (to form a hydrogel): azobenzene substituted bio-active short peptides
Procedure: Preparation of Hydrogels. A homogeneous solution of azobenzene-substituted short peptides was prepared in a glass vial via pH adjustment and heating. Upon cooling to room temperature, a hydrogel formed for Azo-Gln-Phe-Ala; Azo-Lys-Phe-Ala; Azo-Leu- Phe-Ala; Azo-D-Lys-D-Phe-D-Ala; and Azo-Arg-Phe-Ala. However, Azo-Lys-D-Phe-D-Ala and Azo-D-Lys-Phe-Ala, sonification was necessary to facilitate the hydrogelation. Hydrogels of Azo-Ser-Phe-Ala; Azo-Gln-Tyr-Ala; Azo-Glu-Tyr-Ala; and Azo-Glu-Phe-Ala were prepared by acidifying the basic solution to the pH shown in Table 1.
Test on pH and salt effects on gelation properties. pH effect: Azo-dipeptides were mixed with a small quality of water and the mixture were adjusted to the desired pH with 1M HCl or NaOH, then heated to about 80-90° C. to obtain a clear solution. A yellow hydrogel formed upon cooling to room temperature. The lowest concentration for hydrogelation at a specific pH was obtained by successive dilution of the hydrogel using water, at the same pH that of the hydrogelation, to the point when hydrogel could not form.

[2] = Photo-response tests on the hydrogels (UV irradiation); set-up: key to tinit(min): time needed for initial collapse of the gel upon UV irradiation: —: no obvious change upon UV irradiation; details: for tinit(min): time needed for initial collapse of the gel upon UV irradiation: high pressure mercury lamp (500 w); for photo-response of the gel upon UV irradiation (in words): Azo-Glu-Phe-Ala: even after 5 hours of UV-irradiation; for total irradiation time needed for the gel to begin to collapse (tinit): UV irradiation (365 nm), Azo-Lys-Phe-Ala: partial phase transition
Procedure: (§1) Photo-response tests on the hydrogels. The light source for the UV irradiation was a high pressure mercury lamp (500 w) with a filter to cut off visible light. A control experiment was performed in parallel using the same hydrogel in a tin foil covered glass vial to exclude the possibility of response induced by any external stimulus other than light irradiation. The photo-response of the hydrogels was confirmed by observation of the gel to solution phase change of the sample under irradiation, but not on the sample of negative control. In one example, ^1H NMR of Azo-Lys-D-Ala-D-Ala in d-MeOH was used to confirm that after UV irradiation for 2 minutes 11% of the compound was in the cis-configuration, and after 10 minutes, 51% was in the cis-configuration.

[3] = Temperature for gel to solution phase transition; details: for T (° C.): temperature for gel to solution phase transition: azobenzene substituted tripeptide hydrogels
[4] = Rheology test on the hydrogel before and after UV irradiation
Procedure: Rheology test on the hydrogel before and after UV irradiation. All rheological measurements were performed using an ARES-G2 Rheometer with a cone and a plate (25 mm diameter plate and 0.0999 rad cone angle), and a gap opening between the cone and the plate of 0.0282 mm. The dynamic strain sweep test was carried out at 6.282 rad/s, and then dynamic frequency sweep test was investigated at critical strain, which was determined from storage-strain profile.

[5] = Salt effect on gelation properties; details: buffer of higher concentration of Na2HPO4/NaH2PO4; FIG. 1B
Procedure: Salt effect: Buffers at different pHs (5 and 6) and different concentrations (0.05M, 0.1M, 0.2M and 0.5M) were prepared by mixing Na2HPO4 and NaH2PO4 with different concentration. The azo-dipeptides were mixed with a small quality of buffer and heated to about 80-90° C. to obtain a clear solution. Yellow hydrogels formed upon cooling to room temperature. The lowest concentration for hydrogelation at specific pH was obtained by successive dilution of the hydrogel by the buffer with the same concentration of salt to the point when the hydrogel no longer formed.

[6] = 1H NMR determination of cis-configuration after UV irradiation; details: 1H NMR in d-MeOH
Procedure: as §1

[7] = azobenzene substituted dipeptides
[8] = azobenzene substituted tripeptides, pH at which the lowest gelling concentration applies

Substance: Azo-Phe-Tyr
- pH (hydrogelation condition) [1, 7]: 8.6

Substance: Azo-Arg-Phe-Ala
- tinit(min): time needed for initial collapse of the gel upon UV irradiation [2]: 8 min
- T (° C.): temperature for gel to solution phase transition [3]: 47 °C
- pH (hydrogelation condition) [1, 8]: 1.6

Substance: Azo-Gln-Tyr
- pH (hydrogelation condition) [1, 7]: 4.8

Substance: Azo-Lys-D-Phe-D-Ala
- photo-response of the gel upon UV irradiation (in words) [2]: fast responses
- total irradiation time needed for the gel to begin to collapse (tinit) [2]: 7 min
- tinit(min): time needed for initial collapse of the gel upon UV irradiation [2]: 7 min
- decrease in the storage modulus of the hydrogel after UV irradiation ([4]; dynamic frequency sweep test, FIG. 4B): greater than 100 times
- storage modulus of the hydrogel before UV irradiation relative to after UV irradiation ([4]; dynamic strain sweep test, FIG. 4A): 70 times
- temperature at which the gel turned into a solution upon heating [3]: 42 °C
- T (° C.): temperature for gel to solution phase transition [3]: 42 °C
- pH (hydrogelation condition) [1, 8]: 1.2

Substance: Azo-Tyr-Lys
- pH (hydrogelation condition) [1, 7]: 2.2

Substance: Azo-Gln-Ala
- pH (hydrogelation condition) [1, 7]: 2.5

Substance: Azo-Glu-Phe-Ala
- photo-response of the gel upon UV irradiation (in words) [2]: No photo-response was observed
- tinit(min): time needed for initial collapse of the gel upon UV irradiation [2]: —^d
- T (° C.): temperature for gel to solution phase transition [3]: 85 °C
- pH (hydrogelation condition) [1, 8]: 4.7

Substance: Azo-Phe-Ala
- pH (hydrogelation condition) [1, 7]: 7.8

Substance: Azo-Gly-Phe-Ala
- photo-response of the gel upon UV irradiation (in words) [2]: fast responses
- total irradiation time needed for the gel to begin to collapse (tinit) [2]: 5 min
- tinit(min): time needed for initial collapse of the gel upon UV irradiation [2]: 5 min
- T (° C.): temperature for gel to solution phase transition [3]: 48 °C
- pH (hydrogelation condition) [1, 8]: 7.5

Substance: Azo-Lys-Phe-Ala
- total irradiation time needed for the gel to begin to collapse (tinit) [2]: 30 min
- tinit(min): time needed for initial collapse of the gel upon UV irradiation [2]: 30 min
- T (° C.): temperature for gel to solution phase transition [3]: 59 °C
- pH (hydrogelation condition) [1, 8]: 1.6

Substance: Azo-Ala-Tyr
- salt effect on concentration required for hydrogelation [5]: decreased the concentration required for hydrogelation
- pH (hydrogelation condition) [1, 7]: 5.1

Substance: Azo-D-Lys-D-Phe-D-Ala
- tinit(min): time needed for initial collapse of the gel upon UV irradiation [2]: 15 min
- T (° C.): temperature for gel to solution phase transition [3]: 60 °C
- pH (hydrogelation condition) [1, 8]: 1.6

Substance: Azo-Gln-Tyr-Ala
- tinit(min): time needed for initial collapse of the gel upon UV irradiation [2]: —
- T (° C.): temperature for gel to solution phase transition [3]: 81 °C
- pH (hydrogelation condition) [1, 8]: 3.1

Substance: Azo-Ser-Ala
- pH (hydrogelation condition) [1, 7]: —

Substance: Azo-Arg-Phe
- pH (hydrogelation condition) [1, 7]: —

Substance: Azo-Glu-Tyr
- salt effect on concentration required for hydrogelation [5]: almost negligible
- pH (hydrogelation condition) [1, 7]: 4.8

Substance: Azo-Phe-Ser
- pH (hydrogelation condition) [1, 7]: 2.0

Substance: Azo-D-Lys-Phe-Ala
- tinit(min): time needed for initial collapse of the gel upon UV irradiation [2]: 4 min
- T (° C.): temperature for gel to solution phase transition [3]: 39 °C
- pH (hydrogelation condition) [1, 8]: 1.4

Substance: Azo-Ser-Phe
- pH (hydrogelation condition) [1, 7]: 5.7

Substance: Azo-LGAGGAG (Azo-LGAGGAG-OH)
- pH (to form a hydrogel) [1]: 1.6

Substance: Azo-Glu-Lys
- pH (hydrogelation condition) [1, 7]: —

Substance: Azo-YSV
- pH (to form a hydrogel) [1]: 1.8

Substance: Azo-Gln-Gln
- pH (hydrogelation condition) [1, 7]: —^b

Substance: Azo-Leu-Phe-Ala
- tinit(min): time needed for initial collapse of the gel upon UV irradiation [2]: 15 min
- T (° C.): temperature for gel to solution phase transition [3]: 71 °C
- pH (hydrogelation condition) [1, 8]: 8.6

Substance: Azo-Lys-D-Ala-D-Ala
- compound in the cis-configuration ([6]; after UV irradiation for 2 minutes): 11%
- compound in the cis-configuration ([6]; after UV irradiation for 10 minutes): 51%

Substance: Azo-Glu-Phe
- pH (hydrogelation condition) [1, 7]: 2.5

Substance: Azo-Tyr-Ala
- pH (hydrogelation condition) [1, 7]: 3.0

Substance: Azo-Ala-Phe
- pH (hydrogelation condition) [1, 7]: 9.5

Substance: Azo-Gln-Phe-Ala
- total irradiation time needed for the gel to begin to collapse (tinit) [2]: ≤ 3 min
- tinit(min): time needed for initial collapse of the gel upon UV irradiation [2]: 3 min
- time to complete conversion of the hydrogel into a homogeneous non-viscous solution ([2]; UV light (365 nm), without external heating): under 20 minutes
- T (° C.): temperature for gel to solution phase transition [3]: 65 °C
- pH (hydrogelation condition) [1, 8]: 7.8

Substance: Azo-Arg-Lys
- pH (hydrogelation condition) [1, 7]: —

Substance: Azo-Phe-Phe
- pH (hydrogelation condition) [1, 7]: 9.7

Substance: Azo-VYGGG
- pH (to form a hydrogel) [1]: 2.8

Substance: Azo-Lys-Ala
- pH (hydrogelation condition) [1, 7]: —

Substance: Azo-Phe-Glu
- pH (hydrogelation condition) [1, 7]: 2.1

Substance: Azo-Ser-Phe-Ala
- tinit(min): time needed for initial collapse of the gel upon UV irradiation [2]: —^d
- T (° C.): temperature for gel to solution phase transition [3]: 54 °C
- pH (hydrogelation condition) [1, 8]: 3.7

Substance: Azo-Tyr-Tyr
- salt effect on concentration required for hydrogelation [5]: decreased the concentration required for hydrogelation
- pH (hydrogelation condition) [1, 7]: 4.8

Substance: Azo-GAGAS
- pH (to form a hydrogel) [1]: 3.9

Substance: Azo-Glu-Tyr-Ala
- tinit(min): time needed for initial collapse of the gel upon UV irradiation [2]: —
- T (° C.): temperature for gel to solution phase transition [3]: 69 °C
- pH (hydrogelation condition) [1, 8]: 3.0

Substance: Azo-IKVAV
- pH (to form a hydrogel) [1]: 4.5

Substance: Azo-Glu-Ala
- pH (hydrogelation condition) [1, 7]: 2.4

Substance: Azo-Arg-Ala
- pH (hydrogelation condition) [1, 7]: —

Substance: Azo-Arg-Gln
- pH (hydrogelation condition) [1, 7]: —
